# Measured values published in US6476060B2, “4,5-dihydro-1H-pyrazole derivatives having CB1-antagonistic activity” (Solvay Pharmaceuticals, B.V., priority 2000, dated 2002).
row,Compound,melting point [°C]
1,"O=S(=O)(NCCN1CC(c2ccccc2)C(c2ccc(Cl)cc2)=N1)c1cccc(C(F)(F)F)c1 (stereo not drawn) [IX, N-[2-(3-(4-Chlorophenyl)-4,5-dihydro-4-phenyl-1H-pyrazol-1-yl)ethyl]-3-(trifluoromethyl)benzenesulfonamide]",94 to 96
2,"O=S(=O)(CCN1CC(c2ccccc2)C(c2ccc(Cl)cc2)=N1)c1cccc(C(F)(F)F)c1 (stereo not drawn) [VIII, 3-(4-Chlorophenyl)-4,5-dihydro-4-phenyl-1-[2-((3-(trifluoromethyl)phenyl)-sulfonyl)ethyl]-1H-pyrazole]",118 to 119
3,"CNC(=NC(=O)c1cccc(C(F)(F)F)c1)N1CC(c2ccccc2)C(c2ccc(Cl)cc2)=N1 (stereo not drawn) [V, N-Methyl-N′-(3-(trifluoromethyl)benzoyl)-3-(4-chlorophenyl)-4,5-dihydro-4-phenyl-1H-pyrazole-1-carboxamidine]",180 to 182
